Assay results: paper PMC3700072, “Synthesis, Anti-Inflammatory, and Ulcerogenicity Studies of Novel Substituted and Fused Pyrazolo[3,4-d]pyrimidin-4-ones” (Scientia Pharmaceutica, 2013)

Legend:
[1] = test system: carrageenan-induced rat paw edema; assay: carrageenan-induced rat paw edema test; format: in vivo; parameters: Mean increase in edema weight ± SEM: unit not given here; conditions: rats, 10 mg/kg intraperitoneally, 4 h after carrageenan; for inhibition in vivo at 10 mg/kg / change in vivo at 10 mg/kg: Rattus norvegicus, ip; for inhibition in vivo at 10 mg/kg: 4 h, read-out: %Inhibition of Paw edema from control group (edema reduction); for change in vivo at 10 mg/kg / Mean increase in edema weight ± SEM: N = 6; for change in vivo at 10 mg/kg: read-out: Mean % increase in edema weight ± SEM; for % Activity relative to indomethacine: indomethacin = 100
Protocol: The in vivo anti-inflammatory effects of the newly synthesized pyrazolopyrimidine derivatives were assessed by utilizing the functional model of carrageenan-induced rat paw edema using indomethacin as the reference drug. Mean changes and the percent increase in paw edema weight of animals pretreated with the tested compounds after 4 h from the induction of inflammation were measured, together with the percent inhibition of induced rat paw edema by the tested compounds. The anti-inflammatory activity (relative potency) of the tested compounds relative to that of indomethacin was also calculated (Table 1) (Fig. 2).
The in vivo carrageenan-induced rat paw edema model of inflammation was used to evaluate the anti-inflammatory properties of the newly synthesized compounds according to the previously reported Winter et al. method.
Adult male albino rats weighing 100–120 g (obtained from the animal house of the department of Physiology, Faculty of Medicine, Alexandria University) were used throughout the work. Animals were randomly divided into groups of six rats each. They were kept in an animal house under standard conditions of light and temperature with free access to food and water ad libitum and allowed to be accustomed to their environment for two days before testing.
Indomethacin, used as a reference standard (Khahira for Pharmaceutical and Chemical Industry, Cairo, Egypt), and the test compounds were dissolved in DMSO and were injected intraperitoneally at a dose level of 10 mg/kg body weight. Control animals, on the other hand, were intraperitoneally injected with appropriate volume of DMSO only. After one hour of the above treatment, an inflammatory edema in the right hind paw of all animals was induced by subcutaneous injection of 0.05 ml of freshly prepared solution of 1% carrageenan (λ-Carrageenan Sigma–Aldrich Corp. St. Louis, MO, USA) in sterile normal saline (0.9%), into the subplantar tissue of the paw. An equal volume of saline was injected to the left hind paw and served as internal control for the degree of inflammation in the right hind paw.
Four hours after carrageenan injection, animals were decapitated and both the right and left hind paws were excised at a standard point and weighed. The difference in weight from edema between right and left paws was taken as a measure of the degree of inflammation for each animal. The mean increase in weight of the carrageenan-injected paw over the other paw in each group was measured and the percent increase of edema was calculated. The anti-inflammatory efficacy of the tested compounds was assessed by comparing the change in paw weight in the treated animals with that in control animals (treated with DMSO only) and expressed as a percent inhibition of the edema (percent protection against inflammation), calculated according to the following equation: % Inhibition of edema=(1-Wt/Wc)×100 where Wt is the mean increase in paw weight in rats treated with the test compounds and Wc is the mean increase in paw weight in the control group. The anti-inflammatory activity of the test compounds relative to that of indomethacin was also determined (Table 2).
In the anti-inflammatory study, data obtained were expressed as the mean ± standard error (SEM). Statistical significance was determined by comparing the values of the test compounds and the standard with those obtained from the control group of animals using One-way ANOVA with Dunnett’s post-test using the GraphPad Prism version 3.00 for Windows (GraphPad Software, San Diego California USA, www.graphpad.com). The difference in results was considered significant if P < 0.001.

gastric mucosa of rats = assay: gastric ulcerogenic effect (Meshali's method, ulcer index by Robert's method); format: in vivo, rat; parameters: key to Ulcer index: ulcer index = %incidence/10 + avg no. of ulcers + avg severity (0–4)
Protocol: The ulcer index was calculated according to Robert’s method.
Adult male albino rats weighing between 100 and 120 g were used. Animals were divided into groups of five animals each. Rats were fasted 20 h before drug administration. Water was given ad libitum. The control group received the vehicle (1% gum acacia) orally. Other groups received indomethacin or test compounds orally in a dose of 10 mg/kg body weight suspended in 1% gum acacia. Rats were fasted for 2 h, allowed to feed for 2 h, then fasted for another 20 h. Rats were given another two doses on the second and third days. On the fourth day, rats were sacrificed by diethyl ether; the stomach of each rat was removed, opened along the greater curvature, and rinsed with cold 0.9% saline. The stomach was stretched, by pins, on a corkboard and inspected with a 3x magnifying lens for any evidence of mucosal damage. The ulcer index was calculated according to Robert’s method. The number of mucosal damage (red spots) was counted and their severity (ulcerogenic severity) was graded from 0 to 4 according to the following score assignment:
The following figures were calculated: • –– % Incidence/10 = [number of rats showing ulcer of any grade divided by total number of rats in the group × 100]/10. • –– Average number of ulcers: number of ulcers in the group/total number of rats in the group. • –– Average severity: Σ [each ulcer multiplied by its score of severity]/number of ulcers in the group. • Ulcer index = the sum of the 3 figures. • Results are tabulated in Table 2.

Row | melting point [°C] | Compound | inhibition in vivo at 10 mg/kg [1] [%] | change in vivo at 10 mg/kg [1] [%] | Mean increase in edema weight ± SEM [1] | % Activity relative to indomethacine [1] [%] | % ulceration in the population of test animals (gastric mucosa of rats; oral 10 mg/kg) [%] | Average No. of ulcer (gastric mucosa of rats; oral 10 mg/kg on three days) | % Incidence/10 (gastric mucosa of rats; oral 10 mg/kg on three days, 5 animals per group) | % Ulcerogenicity relative to indomethacin (gastric mucosa of rats; oral 10 mg/kg on three days, indomethacin = 100) [%] | Average severity (gastric mucosa of rats; oral 10 mg/kg on three days, score 0 to 4) | Ulcer index (gastric mucosa of rats; oral 10 mg/kg on three days, sum of the 3 figures)
1 | 184 to 186 | Cc1nc2c(cnn2-c2ccccc2)c(=O)n1N=Cc1ccccc1 [Compound 7a, 5-(Benzylideneamino)-6-methyl-1-phenyl-1,5-dihydro-4H-pyrazolo[3,4-d]pyrimidin-4-one] | 34.4 | 15.3 ± 0.515 | 1.03 ± 0.033 | 50.46 | – | – | – | – | – | –
2 | 118 to 119 | O=c1c2cnn(-c3ccccc3)c2nc2ccc(-c3ccccc3)nn12 [Compound 16, 1,7-Diphenylpyrazolo[3′,4′:4,5]pyrimido[1,2-b]pyridazin-4(1H)-one] | 28.1 | 14.3 ± 0.98 | 1.13 ± 0.067 | 41.13 | – | – | – | – | – | –
3 | 155 to 156 | CCOC(=O)c1cc2nc3c(cnn3-c3ccccc3)c(=O)n2nc1N [Compound 14, Ethyl 7-amino-4-oxo-1-phenyl-1,4-dihydropyrazolo[3′,4′:4,5]pyrimido[1,2-b]-pyridazine-8-carboxylate] | 44.6 | 11.1 ± 1.14 | 0.87 ± 0.076 | 65.43 | – | – | – | – | – | –
4 | 198 to 201 | Cc1nc2c(cnn2-c2ccccc2)c(=O)n1N1C(=O)CC(=O)N(c2ccc(Cl)cc2)C1=S [Compound 12b, 1-(4-Chlorophenyl)-3-(6-methyl-4-oxo-1-phenyl-1,4-dihydro-5H-pyrazolo[3,4-d]pyrimidin-5-yl)-2-thioxodihydropyrimidine-4,6(1H,5H)-dione] | 45.9 | 19.3 ± 0.905 | 0.85 ± 0.043 | 67.29 | – | – | – | – | – | –
5 | 191 to 195 | Cc1nc2c(cnn2-c2ccccc2)c(=O)n1N1C(=O)CSC1c1ccc(Cl)cc1 (centres unmarked) [Compound 8b, 5-[2-(4-Chlorophenyl)-4-oxo-1,3-thiazolidin-3-yl]-6-methyl-1-phenyl-1,5-dihydro-4H-pyrazolo[3,4-d]pyrimidin-4-one] | 40.8 | 13 ± 0.702 | 0.93 ± 0.042 | 59.81 | – | – | – | – | – | –
6 | 145 to 146 | Nn1c(C=O)nc2c(cnn2-c2ccccc2)c1=O [Compound 13, 5-Amino-4-oxo-1-phenyl-4,5-dihydro-1H-pyrazolo[3,4-d]pyrimidine-6-carbaldehyde] | 39.5 | 15.1 ± 1.07 | 0.95 ± 0.043 | 57.95 | – | – | – | – | – | –
7 | 179 to 181 | Cc1nc2c(cnn2-c2ccccc2)c(=O)n1N1C(=O)CSC1c1ccccc1 (centres unmarked) [Compound 8a, 6-Methyl-5-(4-oxo-2-phenyl-1,3-thiazolidin-3-yl)-1-phenyl-1,5-dihydro-4H-pyrazolo[3,4-d]-pyrimidin-4-one] | 37.6 | 12.5 ± 0.376 | 0.98 ± 0.017 | 55.14 | – | – | – | – | – | –
8 | – | COc1ccc2c(c1)c(CC(=O)O)c(C)n2C(=O)c1ccc(Cl)cc1 [Indomethacin, reference compound] | 68.2 | 6.37 ± 0.366 | 0.50 ± 0.026 | 100.0 | 100 | 4.4 | 10 | 100.00 | 2.86 | 17.26
9 | 172 to 173 | CCOC(=O)c1cc2nc3c(cnn3-c3ccccc3)c(=O)n2[nH]c1=O [Compound 15, Ethyl 4,7-dioxo-1-phenyl-1,4,6,7-tetrahydropyrazolo[3′,4′:4,5]pyrimido[1,2-b]-pyridazine-8-carboxylate] | 41.4 | 16.4 ± 1.02 | 0.92 ± 0.060 | 60.75 | – | – | – | – | – | –
10 | – | Cc1nc2c(cnn2-c2ccccc2)c(=O)n1N1C(=O)CC(=O)N(c2ccccc2)C1=S [Compound 12a, 1-(6-Methyl-4-oxo-1-phenyl-1,4-dihydro-5H-pyrazolo[3,4-d]pyrimidin-5-yl)-3-phenyl-2-thioxodihydropyrimidine-4,6(1H,5H)-dione] | 35 | 13.6 ± 0.795 | 1.02 ± 0.060 | – | – | – | – | – | – | –
11 | – | Cc1nc2c(cnn2-c2ccccc2)c(=O)n1N [Compound 5, 5-Amino-6-methyl-1-phenyl-1,5-dihydro-4H-pyrazolo[3,4-d]pyrimidin-4-one] | 33.1 | 19.8 ± 1.6 | 1.05 ± 0.089 | 48.60 | – | – | – | – | – | –
12 | 142 to 145 | O=c1c2cnn(-c3ccccc3)c2nc2cc3c(nn12)CCCC3 [Compound 17, 1-Phenyl-7,8,9,10-tetrahydropyrazolo[3′,4′:4,5]pyrimido[1,2-b]cinnolin-4(1H)-one] | 29.9 | 15.8 ± 0.756 | 1.10 ± 0.052 | 43.93 | – | – | – | – | – | –
13 | 264 to 267 | Cc1nc2c(cnn2-c2ccccc2)c(=O)n1N=C1SCC(=O)N1c1ccccc1 [Compound 10a, 6-Methyl-5-[(4-oxo-3-phenyl-1,3-thiazolidin-2-ylidene)amino]-1-phenyl-1,5-dihydro-4H-pyrazolo[3,4-d]pyrimidin-4-one] | 52.2 | 9.5 ± 0.326 | 0.75 ± 0.022 | 76.64 | – | – | – | – | – | –
14 | 145 to 150 | Cc1nc2c(cnn2-c2ccccc2)c(=O)n1NC(=S)Nc1ccccc1 [Compound 9a, 1-(6-Methyl-4-oxo-1-phenyl-1,4-dihydro-5H-pyrazolo[3,4-d]pyrimidin-5-yl)-3-phenylthiourea] | 42.7 | 12.7 ± 0.748 | 0.90 ± 0.058 | 62.63 | – | – | – | – | – | –
15 | 195 to 196 | Cc1nc2c(cnn2-c2ccccc2)c(=O)n1N=Cc1ccc(Cl)cc1 [Compound 7b, 5-[(4-Chlorobenzylidene)amino]-6-methyl-1-phenyl-1,5-dihydro-4H-pyrazolo[3,4-d]-pyrimidin-4-one] | 36.3 | 15.2 ± 1.4 | 1.00 ± 0.063 | 53.28 | – | – | – | – | – | –
